Test results from patent publication US20250177547A1, “PSMA-STEAP1 DUAL VARIABLE DOMAIN IMMUNOGLOBLIN (DVD-Ig) MOLECULES AND DRUG CONJUGATES” (AbbVie Inc., priority 2023, published 2025).
Several values for one entry are separate records, joined by “and”; a condition that tells them apart may be missing. Equal entries are not always repeated.

Columns and labels:
LNCaP.FGC cells = experiment: In vitro cytotoxicity of MMAE conjugates (CellTiter-Glo), LNCaP.FGC; settings: read-out: LNCaP.FGC IC50, 7 days
HEK293-PSMA cells = experiment: In vitro cytotoxicity of MMAE conjugates (CellTiter-Glo), HEK293-PSMA; settings: read-out: HEK293-PSMA IC50, 7 days, CellTiter-Glo

PSMA
IC50 (LNCaP.FGC cells): 0.15 nM and 0.1 nM | IC50 (HEK293-PSMA cells): 0.07 nM and 0.06 nM
